Experimental data taken from the supplement of paper PMC10307832.

Key:
Experiment in all cases: relative viability (nuclei count vs DMSO), 5 days (fraction); higher = more cells survive
NCI-H596 = tested on: NCI-H596
How it was run: (§1)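 Values are medians from duplicate plates. Each reflects relative viability, defined as the nuclei count of treated wells over that of vehicle wells. Lung cancer cell lines in 1536-well plates were pin-tool dosed one day after seeding with one drug alone or with a fixed anchor-drug dose plus five library-drug doses (not always all listed) in √10 steps, then fixed, stained and imaged at 4× after 5 days.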

NCI-H1623 = tested on: NCI-H1623
How it was run: as §1

NCI-H1666 = tested on: NCI-H1666
How it was run: as §1

NCI-H661 = tested on: NCI-H661
How it was run: as §1

NCI-H1944 = tested on: NCI-H1944
How it was run: as §1

SK-LU-1 = tested on: SK-LU-1
How it was run: as §1

PC-14 = tested on: PC-14
How it was run: as §1

EBC-1 = tested on: EBC-1
How it was run: as §1

IA-LM = tested on: IA-LM
How it was run: as §1

Calu-6 = tested on: Calu-6
How it was run: as §1

NCI-H1299 = tested on: NCI-H1299
How it was run: as §1

NCI-H1703 = tested on: NCI-H1703
How it was run: as §1

NCI-H1648 = tested on: NCI-H1648
How it was run: as §1

A549 = tested on: A549
How it was run: as §1

For CCNC(=O)c1noc(-c2cc(C(C)C)c(O)cc2O)c1-c1ccc(CN2CCOCC2)cc1 [Luminespib] + Cc1nc(Nc2ncc(C(=O)Nc3c(C)cccc3Cl)s2)cc(N2CCN(CCO)CC2)n1 [Dasatinib] (partner 0.075 µM), the relative viability (NCI-H596; first compound 0.002 µM) was 0.529, the relative viability (NCI-H596; first compound 0.006325 µM) was 0.614 and the relative viability (NCI-H596; first compound 0.02 µM) was 0.426. It also gave a relative viability (NCI-H596; first compound 0.06325 µM) of 0.479, a relative viability (NCI-H596; first compound 0.2 µM) of 0.511 and a relative viability (NCI-H1623; first compound 0.002 µM) of 0.525. The relative viability (NCI-H1623; first compound 0.006325 µM) was 0.384, the relative viability (NCI-H1623; first compound 0.02 µM) was 0.416 and the relative viability (NCI-H1623; first compound 0.06325 µM) was 0.506. The relative viability (NCI-H1623; first compound 0.2 µM) was 0.406, the relative viability (NCI-H1666; first compound 0.002 µM) was 0.873 and the relative viability (NCI-H1666; first compound 0.006325 µM) was 0.711. The relative viability (NCI-H1666; first compound 0.02 µM) was 0.904, the relative viability (NCI-H1666; first compound 0.06325 µM) was 0.85 and the relative viability (NCI-H1666; first compound 0.2 µM) was 0.748. It also gave a relative viability (NCI-H661; first compound 0.002 µM) of 0.891, a relative viability (NCI-H661; first compound 0.006325 µM) of 0.954 and a relative viability (NCI-H661; first compound 0.02 µM) of 0.662. It also gave a relative viability (NCI-H661; first compound 0.06325 µM) of 0.286, a relative viability (NCI-H661; first compound 0.2 µM) of 0.233 and a relative viability (NCI-H1944; first compound 0.002 µM) of 0.195. The relative viability (NCI-H1944; first compound 0.006325 µM) was 0.232, the relative viability (NCI-H1944; first compound 0.02 µM) was 0.169 and the relative viability (NCI-H1944; first compound 0.06325 µM) was 0.107. It also gave a relative viability (NCI-H1944; first compound 0.2 µM) of 0.132, a relative viability (SK-LU-1; first compound 0.002 µM) of 0.194 and a relative viability (SK-LU-1; first compound 0.006325 µM) of 0.167. For the same compound, the relative viability (SK-LU-1; first compound 0.02 µM) was 0.077, the relative viability (SK-LU-1; first compound 0.06325 µM) was 0.049 and the relative viability (SK-LU-1; first compound 0.2 µM) was 0.0612. It also gave a relative viability (PC-14; first compound 0.002 µM) of 0.253, a relative viability (PC-14; first compound 0.006325 µM) of 0.272 and a relative viability (PC-14; first compound 0.02 µM) of 0.0443. It also gave a relative viability (PC-14; first compound 0.06325 µM) of 0.0382 and a relative viability (PC-14; first compound 0.2 µM) of 0.0374.

Compound CCNC(=O)c1noc(-c2cc(C(C)C)c(O)cc2O)c1-c1ccc(CN2CCOCC2)cc1 [Luminespib] + O=C(c1cc(Cc2n[nH]c(=O)c3ccccc23)ccc1F)N1CCN(C(=O)C2CC2)CC1 [Olaparib] (partner 8 µM) has a relative viability (NCI-H596; first compound 0.002 µM) of 0.752, a relative viability (NCI-H596; first compound 0.006325 µM) of 0.695 and a relative viability (NCI-H596; first compound 0.02 µM) of 0.749. The relative viability (NCI-H596; first compound 0.06325 µM) was 0.617, the relative viability (NCI-H596; first compound 0.2 µM) was 0.602 and the relative viability (EBC-1; first compound 0.002 µM) was 0.794. It also gave a relative viability (EBC-1; first compound 0.006325 µM) of 0.586, a relative viability (EBC-1; first compound 0.02 µM) of 0.572 and a relative viability (EBC-1; first compound 0.06325 µM) of 0.122. For the same compound, the relative viability (EBC-1; first compound 0.2 µM) was 0.124, the relative viability (NCI-H1666; first compound 0.002 µM) was 0.778 and the relative viability (NCI-H1666; first compound 0.006325 µM) was 0.733. The relative viability (NCI-H1666; first compound 0.02 µM) was 0.753, the relative viability (NCI-H1666; first compound 0.06325 µM) was 0.75 and the relative viability (NCI-H1666; first compound 0.2 µM) was 0.716. For the same compound, the relative viability (NCI-H661; first compound 0.002 µM) was 0.754, the relative viability (NCI-H661; first compound 0.006325 µM) was 0.804 and the relative viability (NCI-H661; first compound 0.02 µM) was 0.807. For the same compound, the relative viability (NCI-H661; first compound 0.06325 µM) was 0.414, the relative viability (NCI-H661; first compound 0.2 µM) was 0.3 and the relative viability (IA-LM; first compound 0.002 µM) was 0.919. The relative viability (IA-LM; first compound 0.006325 µM) was 0.785, the relative viability (IA-LM; first compound 0.02 µM) was 0.816 and the relative viability (IA-LM; first compound 0.06325 µM) was 0.0533. For the same compound, the relative viability (IA-LM; first compound 0.2 µM) was 0.0667, the relative viability (Calu-6; first compound 0.002 µM) was 0.652 and the relative viability (Calu-6; first compound 0.006325 µM) was 0.545. For the same compound, the relative viability (Calu-6; first compound 0.02 µM) was 0.696, the relative viability (Calu-6; first compound 0.06325 µM) was 0.111 and the relative viability (Calu-6; first compound 0.2 µM) was 0.098. It also gave a relative viability (NCI-H1299; first compound 0.002 µM) of 0.954, a relative viability (NCI-H1299; first compound 0.006325 µM) of 0.921 and a relative viability (NCI-H1299; first compound 0.02 µM) of 0.959. The relative viability (NCI-H1299; first compound 0.06325 µM) was 0.467, the relative viability (NCI-H1299; first compound 0.2 µM) was 0.147 and the relative viability (NCI-H1944; first compound 0.002 µM) was 0.445. The relative viability (NCI-H1944; first compound 0.006325 µM) was 0.394, the relative viability (NCI-H1944; first compound 0.02 µM) was 0.364 and the relative viability (NCI-H1944; first compound 0.06325 µM) was 0.418. It also gave a relative viability (NCI-H1944; first compound 0.2 µM) of 0.33, a relative viability (SK-LU-1; first compound 0.002 µM) of 0.538 and a relative viability (SK-LU-1; first compound 0.006325 µM) of 0.4. For the same compound, the relative viability (SK-LU-1; first compound 0.02 µM) was 0.475, the relative viability (SK-LU-1; first compound 0.06325 µM) was 0.187 and the relative viability (SK-LU-1; first compound 0.2 µM) was 0.179. It also gave a relative viability (NCI-H1703; first compound 0.002 µM) of 0.401, a relative viability (NCI-H1703; first compound 0.006325 µM) of 0.358 and a relative viability (NCI-H1703; first compound 0.02 µM) of 0.651. For the same compound, the relative viability (NCI-H1703; first compound 0.06325 µM) was 0.127, the relative viability (NCI-H1703; first compound 0.2 µM) was 0.104 and the relative viability (PC-14; first compound 0.002 µM) was 0.288. It also gave a relative viability (PC-14; first compound 0.006325 µM) of 0.261, a relative viability (PC-14; first compound 0.02 µM) of 0.101 and a relative viability (PC-14; first compound 0.06325 µM) of 0.0578. It also gave a relative viability (PC-14; first compound 0.2 µM) of 0.0514, a relative viability (NCI-H1648; first compound 0.002 µM) of 0.765 and a relative viability (NCI-H1648; first compound 0.006325 µM) of 0.653. The relative viability (NCI-H1648; first compound 0.02 µM) was 0.784, the relative viability (NCI-H1648; first compound 0.06325 µM) was 0.505 and the relative viability (NCI-H1648; first compound 0.2 µM) was 0.484. It also gave a relative viability (A549; first compound 0.002 µM) of 0.282, a relative viability (A549; first compound 0.006325 µM) of 0.174 and a relative viability (A549; first compound 0.02 µM) of 0.194. The relative viability (A549; first compound 0.06325 µM) was 0.0387 and the relative viability (A549; first compound 0.2 µM) was 0.0323.
